Test systems include HCC 2998; HCT-15; HL-60; HOP-62; HOP-92; M14; NCI-H226; NCI-H23; NCI-H522; RXF 393; SF-539; SN12C; SNB-19; SNB-78; TK-10; UO-31.
Holding throughout (test): inhibition of tumour cell growth, NCI panel, 48 h

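Method: 48-hour compound exposure of cells in 96-well plates, five concentrations, linear interpolation of endpoints. At the GI50, growth is halved.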 Active and inactive are the calls of the source. Cut-off read from the data, not from the text of the source: active = GI50 up to about 1.1 µM and inactive = higher.

With `CCOC(=O)CC1=N/C(=N/c2cc(Cl)ccc2Cl)SC1`, the GI50 is > 100 µM (inactive) with HCC 2998; 59.4 µM in the experiment on HCT-15; > 100 µM (inactive) in the experiment on HL-60; > 100 µM (inactive) in the experiment with HOP-62; > 100 µM (inactive) with HOP-92; > 100 µM (inactive) in the experiment with M14. In addition, the GI50 in the experiment with NCI-H226 is > 100 µM (inactive); in the experiment on NCI-H23 it was > 100 µM (inactive); in the experiment on NCI-H522, 76.4 µM (inactive); with RXF 393, > 100 µM (inactive); in the experiment with SF-539, > 100 µM (inactive); with SN12C, > 100 µM (inactive). Besides, the GI50 with SNB-19, with SNB-78, in the experiment on TK-10 and in the experiment on UO-31 was > 100 µM (inactive) in each case.

For the compound `COc1ccc(C(=O)N2c3ccccc3N(C)n3cccc3C2CC(=O)O)cc1` (centres undefined), the GI50 is > 100 µM (inactive) in the experiment with HCC 2998; more than 100 µM in the experiment with HCT-15; > 100 µM (inactive) in the experiment on HL-60; > 100 µM (inactive) in the experiment with HOP-62; > 100 µM (inactive) in the experiment with HOP-92; > 100 µM (inactive) in the experiment on M14. Further, the GI50 in the experiment on NCI-H226, with NCI-H23, with NCI-H522, with RXF 393, in the experiment on SF-539 and in the experiment with SN12C was > 100 µM (inactive) each time. The GI50 in the experiment with SNB-19, in the experiment with SNB-78, in the experiment on TK-10 and in the experiment with UO-31 was > 100 µM (inactive) each time.

Regarding `COc1ccc(-c2nnc(-c3c(C)n(C)n(-c4ccccc4)c3=O)o2)cc1`, the GI50 in the experiment on HCC 2998 was > 100 µM (inactive); in the experiment with HCT-15, more than 100 µM; in the experiment on HL-60, > 100 µM (inactive); in the experiment on HOP-62, > 100 µM (inactive); in the experiment with HOP-92, > 100 µM (inactive); in the experiment on M14, > 100 µM (inactive). In addition, the GI50 with NCI-H226, with NCI-H23, with NCI-H522, in the experiment on RXF 393, with SF-539 and in the experiment with SN12C was > 100 µM (inactive) throughout. The GI50 with SNB-19 was > 100 µM (inactive); in the experiment on SNB-78, 68.7 µM (inactive); in the experiment with TK-10, > 100 µM (inactive); in the experiment on UO-31, > 100 µM (inactive).

Regarding `Cc1ccc(NC(=O)C(=O)C2C(=O)NC(=O)NC2=O)cc1C`, the GI50 in the experiment on HCC 2998 is > 100 µM (inactive); in the experiment on HCT-15, more than 100 µM; with HL-60, > 100 µM (inactive); in the experiment with HOP-62 it was > 100 µM (inactive); with HOP-92 it was > 100 µM (inactive); in the experiment with M14 it was > 100 µM (inactive). Further, the GI50 in the experiment on NCI-H226, in the experiment on NCI-H23, with NCI-H522, with RXF 393, in the experiment with SF-539 and with SN12C was > 100 µM (inactive) each time. In addition, the GI50 in the experiment on SNB-19, in the experiment on SNB-78, in the experiment on TK-10 and in the experiment on UO-31 was > 100 µM (inactive) each time.

On to `C[C@H]1CCC2C(CN3CCCCC3)C(=O)OC2[C@]2(C)C(=O)CC(N3CCCCC3)C12O` (some centres undefined), for which the GI50 in the experiment on HCC 2998 is 5.87 µM (inactive); in the experiment on HL-60, 1.56 µM (inactive); with HOP-92, 2.68 µM (inactive); in the experiment with NCI-H226 it was 0.083 µM (active); in the experiment with NCI-H23, 4.3 µM (inactive); with NCI-H522, 1.38 µM (inactive). Moreover, the GI50 with RXF 393 was 1.86 µM (inactive); in the experiment on SF-539 it was 2.26 µM (inactive); with SN12C, 3.75 µM (inactive); in the experiment on SNB-19 it was 20 µM (inactive); with SNB-78, 4.41 µM (inactive); in the experiment with TK-10, 16.6 µM (inactive). In addition, the GI50 with UO-31 was 13.7 µM (inactive).

Take `COC(=O)c1onc(-c2c(OC)cc(OC)cc2OC)c1C(=O)OC`: the GI50 with HCC 2998 was > 100 µM (inactive); in the experiment on HCT-15, more than 100 µM; with HL-60, > 100 µM (inactive); with HOP-62, > 100 µM (inactive); in the experiment on HOP-92, > 100 µM (inactive); with M14 it was > 100 µM (inactive). In addition, the GI50 in the experiment with NCI-H226, in the experiment on NCI-H23, in the experiment with NCI-H522, in the experiment with RXF 393, with SNB-19 and in the experiment with SNB-78 was > 100 µM (inactive) in each case. Moreover, the GI50 in the experiment with TK-10 and with UO-31 was > 100 µM (inactive) in each case.

In the case of `O=C(O)CCC1CCc2cccc3occ1c23` (centres undefined), the GI50 is > 100 µM (inactive) with HCC 2998; more than 100 µM in the experiment on HCT-15; > 100 µM (inactive) in the experiment with HL-60; > 100 µM (inactive) in the experiment on HOP-62; > 100 µM (inactive) in the experiment with HOP-92; > 100 µM (inactive) with M14. The GI50 in the experiment on NCI-H226, in the experiment on NCI-H23, in the experiment on NCI-H522, in the experiment with RXF 393, in the experiment on SF-539 and with SN12C was > 100 µM (inactive) throughout. In addition, the GI50 in the experiment on SNB-19, in the experiment with SNB-78, with TK-10 and in the experiment with UO-31 was > 100 µM (inactive) in each case.

With `CC(=O)Nc1ccc(/C=c2\sc3nnc(-c4cccnc4)n3c2=O)cc1`, the GI50 in the experiment on HCC 2998 is 20.7 µM (inactive); in the experiment with HCT-15, 17.6 µM; in the experiment with HL-60 it was 16.4 µM (inactive); in the experiment with HOP-62, 21.8 µM (inactive); in the experiment with HOP-92 it was 12 µM (inactive); with M14 it was 18.7 µM (inactive). Further, the GI50 in the experiment with NCI-H226 was 49.7 µM (inactive); in the experiment with NCI-H23 it was 15.8 µM (inactive); with NCI-H522, 16.1 µM (inactive); in the experiment with RXF 393, 22.3 µM (inactive); in the experiment on SF-539, 18.7 µM (inactive); in the experiment on SN12C, 14.4 µM (inactive). Further, the GI50 in the experiment on SNB-19 was 24.2 µM (inactive); with SNB-78, 34.4 µM (inactive); with TK-10, 21.6 µM (inactive); with UO-31, 12 µM (inactive).

Turning to `CCCC(=O)OC[n+]1ccc2c(C)c3[nH]c4ccccc4c3c(C)c2c1`, the GI50 in the experiment with HCC 2998 is 0.611 µM (active); in the experiment with HCT-15 it was 0.274 µM; in the experiment with HL-60 it was 1.68 µM (inactive); in the experiment with HOP-62, 0.914 µM (active); in the experiment with HOP-92, 1.32 µM (inactive); in the experiment on M14 it was 1.12 µM (inactive). Moreover, the GI50 is 1.11 µM (active) with NCI-H226; 0.064 µM (active) in the experiment on NCI-H23; 0.832 µM (active) with NCI-H522; 0.067 µM (active) with RXF 393; 0.519 µM (active) with SF-539; 0.404 µM (active) in the experiment on SN12C. Besides, the GI50 was 0.935 µM (active) in the experiment with SNB-19, 1.1 µM (active) with SNB-78, 1.71 µM (inactive) in the experiment on TK-10 and 1.87 µM (inactive) in the experiment on UO-31.

The values are drawn from ChEMBL document CHEMBL1201862, “PubChem BioAssay data set” (2004).
